Legend:
Test in all cases: NHL cell line viability/apoptosis 384-well flow cytometry assay
Format in all cases: cell-based
DB = conditions: 120 hours
Protocol: (§1) The following exemplary anti-proliferative assay uses exemplary non-Hodgkin lymphoma (NIL) cell lines (including diffuse large B-cell lymphoma (DLBCL), follicular lymphoma (FL), and mantle cell lymphoma (MCL)) (Table 5). The in vitro growth inhibitory activity of Compound 1 described herein was evaluated using a 384-well flow cytometry assay.
(§2) The cell lines in Table 5 were plated in 384-well flat bottom plates and assessed with increasing concentrations of compound ranging from 0.00015 to 10 μM or dimethyl sulfoxide (DMSO) control. The final concentration of DMSO was 0.1% (v/v). Following the addition of Compound 1 or DMSO and incubation for 120 hours, cell number and cell death were analyzed by flow cytometry (Attune®, Thermo Fisher) using Annexin V and the live-cell impermeant DNA dye, DRAQ7. Phosphatidylserine translocates from the inner layer to the outer layer of the cell membrane early in apoptosis and Annexin V binds to the exposed phosphatidylserine found on the surface of an apoptotic cell. The vital dye DRAQ7 is excluded by intact live cells and only stains cells that have died as a result of apoptosis or necrosis.
(§3) Flow cytometry data analysis was then performed using the Flow Jo_v10 software to determine the number of viable cells (Annexin V and DRAQ7 double negative staining cells) and percentage of apoptotic cells (Annexin V positive cells) for each condition. The live cell count for every concentration was normalized to the DMSO control (considered as 100%) to calculate the percentage of viable cells remaining after treatment and graphed using GraphPad Prism 7.03. The IC50 (50% inhibitory concentration) and Emax (maximum efficacy achieved) values were then calculated by performing nonlinear regression curve fitting using log(inhibitor) vs. normalized response—variable slope analysis on GraphPad Prism 7.03. Area under the curve (AUC) was calculated by performing area under curve analysis on GraphPad Prism 7.03. Similarly, for apoptosis analysis, the percentage of apoptosis combining both “early” (Annexin V positive and DRAQ7 negative) and “late” apoptosis (Annexin V and DRAQ7 positive) cell gates relative to DMSO was graphed using GraphPad Prism 7.03. The AUC, EC50 (concentration of Compound 1 that produces half-maximal apoptosis response) and Ymax (maximal percentage of apoptosis achieved) values from apoptosis curves were calculated by performing area under curve analysis and nonlinear regression curve fitting using log(agonist) vs. normalized response—Variable slope analysis on GraphPad Prism 7.03.
(§4) In Table 6, dose-response proliferation curves for the panel of NHL cell lines and non-linear curve-fit regression were used to determine IC50, AUC, and Emax for % viable cells (Emax for viability varies between 100 at low doses and 0 at high doses, which corresponds to inhibition of all viable cells), and dose-response apoptosis curves were used to determine the EC50, AUC, and Ymax for % apoptosis (Ymax for apoptosis varies from 0 at low doses and 100 at higher doses which corresponds to death of all cells). Tumor cells were exposed to serial dilutions (0.00015 to 10 μM) of Compound 1 or dimethyl sulfoxide (DMSO) control for 5 days. Viability and apoptosis for all cell lines was determined by Annexin V/[…] flow cytometry.

Farage = Farage (DLBCL), 120 hours
Protocol: as §1, §2, §3, §4

OCI-LY3 = OCI-LY3 (DLBCL), 120 hours
Protocol: as §1, §2, §3, §4

ROS-50 = ROS-50 (DLBCL), 120 hours
Protocol: as §1, §2, §3, §4

SU-DHL-2 = SU-DHL-2 (DLBCL), 120 hours
Protocol: as §1, §2, §3, §4

SU-DHL-4 = SU-DHL-4 (DLBCL), 120 hours
Protocol: as §1, §2, §3, §4

SU-DHL-6 = SU-DHL-6 (DLBCL), 120 hours
Protocol: as §1, §2, §3, §4

U-2904 = U-2904 (DLBCL), 120 hours
Protocol: as §1, §2, §3, §4

U-2932 = U-2932 (DLBCL), 120 hours
Protocol: as §1, §2, §3, §4

U-2973 = conditions: U-2973, 120 hours
Protocol: as §1, §2, §3, §4

ULA = ULA (DLBCL), 120 hours
Protocol: as §1, §2, §3, §4

WSU-DLCL = WSU-DLCL (DLBCL), 120 hours
Protocol: as §1, §2, §3, §4

[1] = Homo sapiens, read-out: IC50 (% Viable Cells)
[2] = read-out: IC50 (% Viable Cells)

With `O=C1CC[C@H](N2C(=O)c3cccc(NCc4ccc(CN5CC(N6CCOCC6)C5)cc4F)c3C2=O)C(=O)N1` [Compound 1, (S)-2-(2,6-dioxopiperidin-3-yl)-4-((2-fluoro-4-((3-morpholinoazetidin-1-yl)methyl)benzyl)amino)isoindoline-1,3-dione] as the compound, how does the “AUC (% Viable Cells)” value (DB) read?
Its value is 941.4.

And the “AUC (Apoptosis)” value (DB)?
The value was 80.31.

And the “Emax (% Viable Cells)” value (DB)?
The value was 89.46%.

And the “Ymax (Apoptosis)” value (DB)?
The value was 11.62%.

What about the EC50 (DB; Homo sapiens) of the same compound?
Its EC50 is 0.0688 µM.

And the IC50 (DB; [1])?
Its IC50 is 10 µM.

What about the “AUC (% Viable Cells)” value (Farage) of the same compound?
The value was 10.16.

What about the “AUC (Apoptosis)” value (Farage) of the same compound?
The value was 728.7.

What about the EC50 (Farage) of the same compound?
Its EC50 is 0.0302 µM.

And the “Emax (% Viable Cells)” value (Farage)?
Its value is 0.7936%.

What about the “Ymax (Apoptosis)” value (Farage) of the same compound?
The value was 84.17%.

What about the IC50 (Farage; [2]) of the same compound?
Its IC50 is 0.00237 µM.

What about the EC50 (OCI-LY3; Homo sapiens) of the same compound?
Its EC50 is 0.000263 µM.

What about the IC50 (OCI-LY3; [1]) of the same compound?
The IC50 was ≥ 10 µM.

And the “AUC (% Viable Cells)” value (OCI-LY3)?
The value was 965.1.

And the “AUC (Apoptosis)” value (OCI-LY3)?
Its value is 24.63.

What about the “Emax (% Viable Cells)” value (OCI-LY3) of the same compound?
The value was 85.63%.

And the “Ymax (Apoptosis)” value (OCI-LY3)?
The value was 4.493%.

And the “AUC (% Viable Cells)” value (ROS-50)?
Its value is 762.1.

What about the “AUC (Apoptosis)” value (ROS-50) of the same compound?
The value was 87.92.

And the EC50 (ROS-50)?
Its EC50 is 0.335 µM.

And the “Emax (% Viable Cells)” value (ROS-50)?
The value was 65.57%.

And the “Ymax (Apoptosis)” value (ROS-50)?
The value was 10.9%.

And the IC50 (ROS-50; [2])?
Its IC50 is ≥ 10 µM.

And the EC50 (SU-DHL-2; Homo sapiens)?
The EC50 was 0.00624 µM.

What about the IC50 (SU-DHL-2; [1]) of the same compound?
The IC50 was 0.00126 µM.

What about the “AUC (% Viable Cells)” value (SU-DHL-2) of the same compound?
The value was 5.586.

What about the “AUC (Apoptosis)” value (SU-DHL-2) of the same compound?
Its value is 928.4.

What about the “Emax (% Viable Cells)” value (SU-DHL-2) of the same compound?
Its value is 0.2145%.

What about the “Ymax (Apoptosis)” value (SU-DHL-2) of the same compound?
Its value is 95.98%.

And the EC50 (SU-DHL-4; Homo sapiens)?
The EC50 was 0.782 µM.

And the IC50 (SU-DHL-4; [1])?
The IC50 was 0.278 µM.

What about the “AUC (% Viable Cells)” value (SU-DHL-4) of the same compound?
The value was 296.2.

What about the “AUC (Apoptosis)” value (SU-DHL-4) of the same compound?
Its value is 209.

And the “Emax (% Viable Cells)” value (SU-DHL-4)?
The value was 23.44%.

What about the “Ymax (Apoptosis)” value (SU-DHL-4) of the same compound?
The value was 25.33%.

What about the EC50 (SU-DHL-6; Homo sapiens) of the same compound?
Its EC50 is 0.104 µM.

And the IC50 (SU-DHL-6; [1])?
The IC50 was 0.0325 µM.

What about the “AUC (% Viable Cells)” value (SU-DHL-6) of the same compound?
Its value is 19.94.

What about the “AUC (Apoptosis)” value (SU-DHL-6) of the same compound?
Its value is 920.7.

And the “Emax (% Viable Cells)” value (SU-DHL-6)?
Its value is 0.2469%.

And the “Ymax (Apoptosis)” value (SU-DHL-6)?
The value was 95.92%.

And the “AUC (% Viable Cells)” value (U-2904)?
The value was 334.1.

And the “AUC (Apoptosis)” value (U-2904)?
The value was 456.1.

And the EC50 (U-2904)?
The EC50 was 3.29 µM.

And the “Emax (% Viable Cells)” value (U-2904)?
The value was 7.609%.

What about the “Ymax (Apoptosis)” value (U-2904) of the same compound?
Its value is 77.39%.

What about the IC50 (U-2904; [2]) of the same compound?
Its IC50 is 0.201 µM.

What about the EC50 (U-2932; Homo sapiens, U2932) of the same compound?
Its EC50 is 0.567 µM.

And the IC50 (U-2932; Homo sapiens, U2932, read-out: IC50 (% Viable Cells))?
The IC50 was 0.036 µM.

What about the “AUC (% Viable Cells)” value (U-2932) of the same compound?
The value was 163.7.

What about the “AUC (Apoptosis)” value (U-2932) of the same compound?
The value was 212.8.

And the “Emax (% Viable Cells)” value (U-2932)?
Its value is 12.8%.

What about the “Ymax (Apoptosis)” value (U-2932) of the same compound?
Its value is 25.81%.

What about the EC50 (U-2973; Homo sapiens) of the same compound?
Its EC50 is 2.16 µM.

And the IC50 (U-2973; [1])?
Its IC50 is 6.78 µM.

What about the “AUC (% Viable Cells)” value (U-2973) of the same compound?
The value was 853.4.

What about the “AUC (Apoptosis)” value (U-2973) of the same compound?
The value was 391.9.

What about the “Emax (% Viable Cells)” value (U-2973) of the same compound?
The value was 19.45%.

And the “Ymax (Apoptosis)” value (U-2973)?
The value was 60.8%.

And the “AUC (% Viable Cells)” value (ULA)?
The value was 0.5518.

What about the “AUC (Apoptosis)” value (ULA) of the same compound?
Its value is 995.3.

What about the EC50 (ULA) of the same compound?
The EC50 was 0.00179 µM.

What about the “Emax (% Viable Cells)” value (ULA) of the same compound?
Its value is 0.02523%.

What about the “Ymax (Apoptosis)” value (ULA) of the same compound?
The value was 99.76%.

What about the IC50 (ULA; [2]) of the same compound?
Its IC50 is 0.00099 µM.

And the “AUC (% Viable Cells)” value (WSU-DLCL)?
The value was 341.9.

What about the “AUC (Apoptosis)” value (WSU-DLCL) of the same compound?
The value was 565.1.

What about the EC50 (WSU-DLCL) of the same compound?
Its EC50 is 0.018 µM.

What about the “Emax (% Viable Cells)” value (WSU-DLCL) of the same compound?
Its value is 27.83%.

And the “Ymax (Apoptosis)” value (WSU-DLCL)?
Its value is 59.91%.

What about the IC50 (WSU-DLCL; [2]) of the same compound?
The IC50 was 0.142 µM.

Reference: patent US11390617B2, “Methods of treating non-Hodgkin lymphoma using 2-(2,6-dioxopiperidin-3-yl)-4-((2-fluoro-4-((3-morpholinoazetidin-1-yl)methyl)benzyl)amino)isoindoline-1,3-dione” (Celgene Corporation, priority 2019, dated 2022)
